In US20230272012A1, “PEPTIDES AND METHODS OF USE” (REALTA LIFE SCIENCES, INC., priority 2020, published 2023):
Entries after “also recorded” stand apart in the source; their conditions may differ. Peptide text beside a SMILES is read from it.

How the values were obtained:
human neutrophils = experiment: NETosis assay (free DNA, PicoGreen); type: cell-based; conditions: peptide 2 mM; neutrophils stimulated with PMA and H2O2
Procedure: Free DNA as a marker for NET formation was measured by PicoGreen as previously described. Briefly, 2.0×10^6 human neutrophils in 96-well plates were stimulated with 12 nM PMA and 0.05% H2O2 in RPMI with or without the indicated peptide variants (2 mM) for 2.5 hr in a 37° C. humified incubator supplemented with 5% CO2, allowing NETosis to occur. Neutrophils in RPMI alone served as a negative control. Fifty units of […] (Fisher) were added to each well to allow for digestion of released extracellular DNA for 10 min at 37° C. The preparation was then aliquoted into an adjacent well and mixed 1:1 with prepared PICO green reagent (Fisher). The fluorescence was then quantified on a BioTek microplate reader at excitation 485 nm/emission 528 nm.

[1] = as described in U.S. Pat. No. 10,005,818; cited from earlier work
CTLA-4 = molecular target: T1, CTLA-4 (Homo sapiens, UniProt P16410); experiment: CTLA-4 Blockade Bioassay (Promega); type: cell-based; parameters: host or cells: Jurkat T cells (CTLA-4 effector cells); aAPC/Raji cells; conditions: increasing concentrations; listed as RLS-0130
T1 sequence (P16410 36-223): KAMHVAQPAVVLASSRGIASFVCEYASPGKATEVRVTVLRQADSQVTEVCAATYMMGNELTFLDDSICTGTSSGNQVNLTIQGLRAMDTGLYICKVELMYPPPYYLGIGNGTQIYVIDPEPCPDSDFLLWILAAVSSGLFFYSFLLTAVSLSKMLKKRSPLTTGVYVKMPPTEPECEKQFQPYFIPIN
Procedure: CTLA-4 effector cells were incubated with aAPC/Raji Cells in the absence or presence of increasing concentrations of anti-CTLA-4 antibody (positive control), RLS-0127*, RLS-0130, RLS-0156, RLS-0170 and RLS-0174. Luminescence was detected in luminometer plate reader.
To assess if PIC1 peptides could block CTLA-4 inhibitory activity in a cell-based assay, select peptides were screened in the CTLA-4 Blockade Bioassay (Promega). This bioluminescent cell-based assay is used to measure the potency and stability of molecules targeting CTLA-4 and consists of two genetically engineered cell lines: CTLA-4 effector cells: Jurkat T cells expressing human CTLA-4 and a luciferase reporter driven by a native promoter which responds to TCR/CD28 activation and aAPC/Raji Cells: Raji cells expressing an engineered cell surface protein designed to activate cognate TCRs in an antigen-independent manner and endogenously expressing CTLA-4 ligands CD80 and CD86. When the two cell types are co-cultured, CTLA-4 competes with CD28 for their shared ligands, CD80 and CD86 and thus inhibits CD28 pathway activation and promoter-mediated luminescence. Addition of a molecule that blocks the interaction of CTLA-4 with its ligands CD80 and CD86 results in promoter-mediated luminescence.

complement activity = experiment: Hemolytic assay of plasma after IV infusion into rats; type: in vivo, rat; conditions: IV in Wistar rats; early time points at the highest dose
Procedure: (§1) Male Wistar rats with indwelling jugular catheters were administered PA-0117, -0127, -0130, and -0133 with groups of three animals receiving 20, 200 and 400 mg/kg of the compound as a single, bolus, IV infusion. A control group of rats received an infusion of saline IV. At various time points after infusion (0.5, 2, 5, 20, 60, 120, 240, 480, 1440 minute) an aliquot of blood was drawn and plasma isolated and frozen at −70° C. pending analysis. Animals were sacrificed after the terminal blood draw and a gross necropsy performed.
(§2) PA-0117 could not be analyzed as no functional complement activity was obtained from the plasma samples. […] PA-0117 was analyzed in a C1q target acquisition assay (C1q binding assay) as described in Example 1 (FIG. 9). […] PA-0127 and -0130 levels were determined by coating the plate with the plasma samples and directly detecting the peptides by rabbit antibody raised against PA-0020 (peptide sequence […]; SEQ ID NO: 57) (FIGS. 10B and 11B). […] PA-0133 could not be detected by the available antibodies.

[2] = test system: purified human Pan T-cells; experiment: T-cell exhaustion protocol (Dynabeads re-stimulation); type: cell-based; conditions: peptides 2 mg/ml at each stimulation
Procedure: Purified human pan-T-cells were subject to stimulation with Dynabeads every 48 hours over the period of 8 days with cells also receiving PIC1 peptides (2 mg/ml) at each stimulation. Cells not receiving Dynabeads were run in parallel to assess background levels of Caspase 3/7 signal. At the eighth day, cells were harvested and the levels of Caspase 3/7 determined by ELISA.
Purified human pan-T-cells were subject to stimulation with Dynabeads every 48 hours over the period of 8 days with cells also receiving PIC1 peptides (2 mg/ml) at each stimulation. Cell supernatants were collected at each stimulation and levels of IL-2 and IFN-gamma assayed by ELISA.
T-cell exhaustion is a form of T-cell dysfunction that occurs in cancer. It is defined by poor effector function, reduction in cytokine release (e.g., IL-2, TNF-alpha, IFN-gamma), sustained expression of inhibitory receptors (e.g., PD-1, LAG-3, CD244, CD160) with the progressive loss of effector function due to overstimulation. Exhaustion prevents optimal control of tumor growth. Exhausted T cells are prevalent in the tumor microenvironment (TME) and can lead to T-cell apoptosis. T-cell exhaustion is reversible, and pharmaceutical inhibition of T-cell exhaustion has been considered a promising strategy by many cancer researchers. To ascertain if PIC1 peptides could reverse T-cell exhaustion and increase T cell viability and effector function, a T-cell exhaustion protocol was developed. To induce T-cell exhaustion, purified human Pan T-cells were stimulated with T-Activator CD3/CD28 Dynabeads and cells are washed and re-stimulated every 48 hours. PIC1 peptides were added to the cells after each stimulation with Dynabeads. After three to four stimulations cells were harvested for readouts which consisted of assessing T-cell apoptosis by measuring Caspase 3/7 levels and production of cytokines IL-2 and IFN-gamma which is indicative of T-cell functionality. […] To further evaluate if PIC1 peptides could restore T-cell functionality in cells that have undergone the exhaustion protocol, the inventors next assessed production of cytokines IL-2 and IFN-gamma. Supernatants from the cells after each stimulation were collected and the cytokines measured by ELISA. […] The lower level of IFN-gamma signal compared to IL-2 was consistently seen in this assay.

[3] = type: in vivo, rat; conditions: IV in Wistar rats, 20, 200, 400 mg/kg; 0.5-1440 minute
Procedure: as §1, §2
PA-0117: The hemolysis assay results were not useable (few pre-bleeds had any activity, and only a few other random samples had any complement activity). The PK assay for PA-0117 was performed by sandwich ELISA (FIG. 9). PA-0127: The results of the hemolysis assay are discussed herein (see also FIG. 10A). […] PA-0130: The results of the hemolysis assay are discussed herein (see also FIG. 11A). […] PA-0133: The results of the hemolysis assay are discussed herein (FIG. 12).

PD-1/PD-L1 interaction = molecular target: T2, PD-1/PD-L1 interaction (Homo sapiens, UniProt Q15116+Q9NZQ7); experiment: PD-1/PD-L1 Blockade Bioassay (Promega); type: cell-based; conditions: increasing peptide concentrations
T2 construct: host or cells: PD-1 effector cells; PD-L1 aAPC/CHO-K1 cells
Procedure: PD-1 effector cells were incubated with PD1-L1 aAPC cells in the absence or presence of increasing concentrations of anti-PD-1 antibody (positive control) and select PIC1 peptides. Luminescence was detected in luminometer plate reader.
To assess if PIC1 peptides could block PD-1 inhibitory activity in a cell-based assay, select peptides were screened in the PD-1/PD-L1 Blockade Bioassay (Promega). The PD-1/PD-L1 Blockade Bioassay is a biologically relevant MOA-based assay that can be used to measure the potency and stability of antibodies and other biologics designed to block the PD-1/PD-L1 interaction. This bioluminescent cell-based assay is used to measure the potency and stability of molecules targeting PD-1 and consists of two genetically engineered cell lines: aAPC/CHO-K1 Cells are CHO-K1 cells with an engineered cell surface protein designed to activate cognate TCRs in an antigen-independent manner. When the two cell types are co-cultured, the PD-1/PD-L1 interaction inhibits TCR signaling and NFAT-mediated luciferase activity. Addition of an inhibitory molecule that blocks either PD-1 or PD-L1 releases the inhibitory signal and results in TCR signaling and NFAT-mediated luciferase activity.

[4] = ABO incompatibility hemolytic assay of complement activity (CH50-type); type: cell-based, human; conditions: peptide 0.8 mg/ml (~0.5 mM); read-out: decrease of ABO hemolysis compared to PA-I8Sar
Procedure: FIG. 1A-1B show PIC1 peptides' inhibition of complement activation in an ABO incompatibility assay. […] Inhibition of ABO incompatibility hemolysis in a CH50-type assay. Peptides are at a final concentration of 0.5 mM. Values are represented as a percent of the positive control, which consists of human O sera and AB red blood cells in GVBS^++ buffer. Data are the means of n=3 independent experiments±SEM.
For hemolytic complement assays, human red blood cells (RBCs) from type AB donors were purified, washed, and standardized to 1.0×10^9 cells/ml, as previously described. Human sera from type O donors at a 15% final concentration was combined with 0.5 mM of the peptides and the volume was brought up to 0.2 ml with GVBS^++ and 5.0×10^7 RBCs. The samples were incubated for 1 hour at 37° C. and then spun at 3,000 rpm for 5 minutes and the supernatant was collected and read at 412 nm. Values are represented as a percent of the positive control, which consists of human O sera and AB red blood cells in GVBS^++ buffer.
To assess the extent to which the peptide variants inhibit antibody-initiated complement activation, an ABO incompatibility ex vivo assay was utilized in which purified erythrocytes from a ‘type AB+’ donor are incubated with sera from a ‘type O’ subject containing anti-A and anti-B antibodies. Peptides were tested at a concentration of 0.8 mg/ml (˜0.5 mM). […] D-amino acid variants PA-0127 and PA-0133 decreased ABO hemolysis by 20% (P value=0.083) and 25% (P value=0.076), respectively. […]

T2 sequence (Q15116 25-288): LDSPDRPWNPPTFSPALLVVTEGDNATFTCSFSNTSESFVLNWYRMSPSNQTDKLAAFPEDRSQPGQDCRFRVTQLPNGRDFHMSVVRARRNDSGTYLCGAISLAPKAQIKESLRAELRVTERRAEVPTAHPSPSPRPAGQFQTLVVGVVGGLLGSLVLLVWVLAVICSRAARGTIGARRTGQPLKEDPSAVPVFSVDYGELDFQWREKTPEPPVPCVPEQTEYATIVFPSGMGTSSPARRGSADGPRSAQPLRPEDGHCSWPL
T2 sequence (Q9NZQ7 19-290): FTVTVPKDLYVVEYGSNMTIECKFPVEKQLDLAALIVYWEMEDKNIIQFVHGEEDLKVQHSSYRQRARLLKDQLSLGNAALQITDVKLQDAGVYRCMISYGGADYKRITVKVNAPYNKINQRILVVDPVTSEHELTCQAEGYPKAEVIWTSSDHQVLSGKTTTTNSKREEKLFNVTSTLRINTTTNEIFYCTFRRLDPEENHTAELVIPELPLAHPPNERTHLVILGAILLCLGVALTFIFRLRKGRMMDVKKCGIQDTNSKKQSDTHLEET

Compound	reduction of free DNA (marker of NETosis) (human neutrophils)	water solubility without PEGylation [1]	inhibitory activity in CTLA-4 blockade bioassay (luminescence) (CTLA-4)	inhibition of complement activity in the hemolytic assay of rat plasma (complement activity)	Caspase 3/7 levels ([2]; eighth day)	IL-2 signal at stimulation 2 ([2]; supernatant ELISA)	peptide level in plasma over time [3]	inhibition of PD-1/PD-L1 inhibitory signaling (luminescence) (PD-1/PD-L1 interaction)	decrease in ABO hemolysis compared to reference peptide [4]
IALILEP(Sar)CCQERAA (IALILEPXCCQERAA; sarcosine at position 8; MOD_RES (8)..(8) Sarcosine) [PA-0088, reference compound]	reduced the level of free DNA	water soluble without PEGylation	–	–	–	–	–	–	–
IALILEPI(Sar)CQERAA (IALILEPIXCQERAA; sarcosine at position 9; MOD_RES (9)..(9) Sarcosine) [PA-0089]	–	water soluble without PEGylation	–	–	–	–	–	–	–
CC[C@H](C)[C@H](N)C(=O)N[C@@H](C)C(=O)N[C@@H](CC(C)C)C(=O)N[C@H](C(=O)N[C@@H](CC(C)C)C(=O)N[C@@H](CCC(=O)O)C(=O)N1CCC[C@H]1C(=O)N(C)CC(=O)N[C@@H](CS)C(=O)N[C@@H](CS)C(=O)N[C@@H](CCC(N)=O)C(=O)N[C@H](CCC(=O)O)C(=O)N[C@@H](CCCNC(=N)N)C(=O)N[C@@H](C)C(=O)N[C@@H](C)C(=O)O)[C@@H](C)CC [PA-0130, IALILEP(Sar)CCQdERAA] (HELM PEPTIDE1{I.A.L.I.L.E.P.[Sar].C.C.Q.[dE].R.A.A}$$$$V2.0)	reduction in free DNA similar to that of the PA-I8Sar control; also recorded: ability to inhibit NET formation	–	showed inhibitory activity; also recorded: able to inhibit CTLA-4 mediated cell signaling	inhibition of complement activity	very low to undetectable levels of Caspase 3/7	showed an IL-2 signal at stimulation 2	increased binding was observed at early time points with diminished signal at later time points	did not show PD-1/PD-L1 inhibitory activity	–
CC[C@H](C)[C@H](N)C(=O)N[C@@H](C)C(=O)N[C@@H](CC(C)C)C(=O)N[C@H](C(=O)N[C@@H](CC(C)C)C(=O)N[C@@H](CCC(=O)O)C(=O)N1CCC[C@H]1C(=O)N(C)CC(=O)N[C@H](CS)C(=O)N[C@@H](CS)C(=O)N[C@@H](CCC(N)=O)C(=O)N[C@@H](CCC(=O)O)C(=O)N[C@@H](CCCNC(=N)N)C(=O)N[C@@H](C)C(=O)N[C@@H](C)C(=O)O)[C@@H](C)CC [PA-0127, IALILEP(Sar)dCCQERAA] (HELM PEPTIDE1{I.A.L.I.L.E.P.[Sar].[dC].C.Q.E.R.A.A}$$$$V2.0)	did not reduce levels of free DNA; also recorded: did not show a reduction in free DNA	–	–	inhibition of complement activity	–	–	increased binding was observed at early time points with diminished signal at later time points	–	20%
